Each structure is given as a SMILES string.

Take `CC1C(=O)N(CC(N)=O)c2cc(Br)ccc21` (centres undefined): the melting point (usually the temperature of the solid-liquid transition) lay in the range of 102 to 104 °C.
With `CSc1nc2ccnn2c(O)c1C#N` the figure was > 250 °C.
With `CCCC/C(=C\C(=O)O)c1cnc(CCCC)n1Cc1ccccc1Cl` the figure was 131 to 132 °C.
For the compound `CC(C)(C)Sc1c(CC(C)(C)C(=O)O)n(Cc2ccc(Cl)cc2)c2ccc(OCc3cccc(Cl)n3)cc12`, the melting point was 206 to 207 °C.
Regarding `N#Cc1ccc2c(c1)C=CCCO2`, the melting point was in the range of 69 to 71 °C.
Then `Nc1ccc(-c2nc3cc(N)ccc3o2)cc1`, with 226 to 228 °C; and `C=C1c2ccn3c(C)c(C)nc3c2N[C@H](c2ccccc2)[C@H]1O`, with 199 to 202 °C; and `CCCc1c(OCCCCCCCC(=O)O)ccc(C(C)=O)c1O`, with 73 to 76 °C.
As for `CCC1(c2ccnc(OC)c2CO)OCCCO1`, the melting point stood at 79 °C.
Then `CC(C)(C)N(CCOCC#Cc1cncs1)C(=O)C(=O)O`, with 104 to 105 °C; and `N#Cc1cc(C(=O)NNC(=O)c2occc2-c2ccccc2OCC2CCCCC2)ccc1O`, with 142 to 143 °C.
Then `COc1cc(-c2cc(Br)cs2)cc2oc(=O)c(C)c(C)c12`, with 131 to 134 °C; and `OCCOc1cccc2ocnc12`, with 47 to 49 °C; and `Cc1ccn2c(=O)c(CCN3CCN(c4ccc(Cl)cc4)CC3)c(C)nc2c1`, with 156 to 157 °C.
Compound `CCOC(=O)C1=C(C)NC(C)=C(C(=O)OCCN2CCN(C(c3ccccc3)c3ccccc3)CC2)C1c1ccc(Cl)cc1` (centres undefined) came in with a melting point of 75 to 79 °C.
`CN1C(=O)CC[C@]2(C)c3ccc(Sc4ccc5cc([N+](=O)[O-])ccc5n4)cc3CC[C@@H]12` showed a melting point of 195 to 196 °C.
Then `Oc1nc(Cc2ccc(F)cc2F)ncc1F`, with 155 to 156 °C.
Then `CCCCN=C1c2ccccc2CCc2c1nc1c(cnn1CC)c2NCCCC`, with 124 to 125 °C; and `CN(CC(=O)O)C[C@H]1O[C@H](c2ccccc2Cl)c2cc(Cl)ccc2N(Cc2ccccc2)C1=O` (relative stereo), with 195 to 197 °C.
`CCCC(CCC)Nc1nc(C)nc(Oc2c(Br)cc(C(C)(C)O)cc2OC)c1N` yielded a melting point of 114 to 116 °C.
Then `CS(=O)c1nc(-c2ccccc2)c(-c2ccccc2)o1` (centres undefined), with 75 to 78 °C; and `O=C(CC1(O)C(=O)N(Cc2ccc(Cl)cc2)c2ccccc21)C1CC1` (centres undefined), with 102 to 103 °C.
On to `Cc1ccc(CCOc2cccc3c(Cl)ccnc23)cc1`, for which the melting point lay in the range of 74 to 75 °C.
With `CC(C(C=Cc1ccc(Cl)cc1)OCc1ccc(Cl)cc1)n1cncn1` (centres undefined) the figure was 91 °C; with `CC(C)(C)COc1ccc(N)cc1C#N`, 55 to 56 °C.
Regarding `CCCCc1nnc(SCC(=O)OC)n1Cc1ccc(NC(=O)c2ccccc2C(=O)O)cc1`, the melting point lay in the range of 161 to 162 °C.
Then `Cn1c(CO)ncc(OCc2ccccc2)c1=O`, with 83 to 84 °C; and `CCOC(=O)CC1CC2C(CCC3(C)C(=O)CCC23)c2ccc(O)cc21` (centres undefined), with 138 °C.
With `CCOCc1nc2c(N)nc(C)cc2n1NC(C)C`, the melting point lay in the range of 139 to 141 °C.
Consider `COc1ccc2[nH]c(S(=O)Cc3cc(N(C)C)c(Cl)cn3)nc2c1` (centres undefined), for which the melting point is 155 to 157 °C.
With `Nc1nc(O)c2c(n1)NCC(CCCCCC(=O)N[C@@H](CCC(=O)O)C(=O)O)C2` (some centres undefined) the figure was 144 °C.
`CN(C)C(=S)SC(C[N+](=O)[O-])c1ccccc1` (centres undefined) displayed a melting point of 105 to 106 °C.
Then `O=C(N[C@H](Cc1ccc(Oc2ccccc2)cc1)[C@@H](O)c1ccc(F)cc1)c1ccc(F)c2ccccc12` (racemic), with 104 to 105 °C; and `O=C(O)COc1ccc(OCCC2CCN(c3ccncc3)CC2)cc1`, with 247 to 249 °C.
Then `COc1c(Br)cc(Br)c(OC)c1C(=O)O`, with 108 to 110 °C.
`Cc1sc(-n2cccc2)c(C#N)c1C` yielded a melting point of 45 °C.
Compound `O=C(Nc1ccc2c(c1)OCO2)c1ccccc1` registered a melting point of 110 to 112 °C.
In turn, `Cc1nc2sc(Cl)cn2c(=O)c1O` showed a melting point of 214 to 217 °C.
As to `O=C(c1cc2cccc(NS(=O)(=O)c3cccs3)c2[nH]1)N(Cc1ccccc1)Cc1ccccc1`, the melting point is 198 to 199 °C.
Then `COc1cc(NC(C)CCCN)c2nccc(C)c2c1Oc1cccc(C(F)(F)F)c1` (centres undefined), with 128 to 131 °C; and `COc1cc(C)c(C(=O)c2c(Cl)cccc2Cl)cc1OCC1CC1`, with 152 °C.
With `O=C(O)[C@@H]1C[C@H](SCc2ccc(C3CCCCC3)cc2)CN1` the figure was 209 to 210 °C; with `Clc1ccc2c(N3CCCC4CCCC(N5CCCC5)C43)ccnc2c1` (centres undefined), 136 to 138 °C; with `O=C(NC(=O)N1CCC(Cc2ccc(F)cc2F)CC1)c1ccc(O)cc1`, 168 °C.
`CCCCNC(=O)[C@@H](C[C@H](O)[C@H](CC1CCCCC1)NC(=O)[C@H](Cc1cscn1)NC(=O)[C@@H](CC(=O)N(C)Cc1ccccc1)Cc1ccccc1)C(C)C` showed a melting point of 155 to 156 °C.
Then `CCOc1ccc(Nc2nc(Nc3ccc4c(c3)OCCO4)ncc2F)cc1`, with 164 to 167 °C; and `Cc1ccccc1-c1cc2cnc(N)nc2nc1NC(=O)NC(C)(C)C`, with 195 to 197 °C.
Then `CCCCCCCCCCCCCCCCCCCC1CN(C(=O)c2cc(OC)c(OC)c(OC)c2)CCN1C(=O)c1cc(OC)c(OC)c(OC)c1` (centres undefined), with 76 °C; and `Fc1ccc(-c2ncn(C3CC3)c2-c2ccncc2)cc1`, with 129 to 130 °C.
On to `CC(C)Nc1cccnc1N(C)CCOC(=O)c1cc2ccccc2[nH]1`, for which the melting point fell in the range of 130 to 131 °C.
With `O=C1C(=O)N(C2CCCCC2)C(=O)N1c1ccccc1`, the melting point was 133 to 140 °C.
In turn, `CCCCCc1cc(-c2cc(=O)c3c(O)cc(O)cc3o2)ccc1OC` yielded a melting point of 166 to 168 °C.
Then `CCCC(=O)c1cnc2c(C)cccc2c1Nc1ccccc1CC`, with 117 to 119 °C; and `Fc1ccc(-c2nc3occn3c2-c2ccnc(N[C@H]3CN4CCC3CC4)n2)cc1`, with 217 to 218 °C.
With `Cc1c(NC(=O)c2ccc(OC[C@@H]3CCCO3)cc2)ccc2c1cc(CNCC(C)(C)O)n2C` the figure was 160 to 162 °C; with `CS(=O)(=O)ON=C(C#N)C=Cc1ccccc1`, 127 to 129 °C.
Then `N#Cc1ccc(-c2cn(-c3ccc(C#N)cc3)c(Cc3ccccc3)n2)cc1`, with 168 to 188 °C; and `Cc1ccccc1C(=O)Nc1ccc(C(=O)N2CCCC(OCC(=O)N3CCSCC3)c3ccccc32)cc1` (centres undefined), with 235 to 237 °C; and `COc1ccc(C(=O)N2CCN(CC(=O)N3CC=C(c4cccc(C(F)(F)F)c4)n4ncc(C#N)c43)CC2)cc1`, with 151 to 153 °C.
`CC1(C)C(C=C(Br)Br)C1C(=O)OCc1cccc(Oc2ccccc2)c1` (centres undefined) displayed a melting point of 93 °C.
Then `COc1c2oc(C)cc2cc2c(C)cc(=O)oc12`, with 154 to 155 °C.
Turning to `O=C1N(Cc2ncccn2)c2ccccc2C12COc1cc3c(cc12)OCCO3` (centres undefined), the melting point lay in the range of 210 to 212 °C.
The compound `CCn1cc(C(=O)O)c(=O)c2cc(F)c(N3CCN(O)CC3)c(F)c21` returned a melting point of 253 to 260 °C.
`CCCn1c(=O)c2[nH]c(/C=C/c3cc(Br)c(OC)c(OC)c3)nc2n(CCC)c1=O` showed a melting point of 277 to 278 °C.
Then `N#CCCn1ncccc1=O`, with 75 to 76 °C; and `CC(C)(C)OC(=O)NCc1nnc(S)s1`, with 144 to 146 °C.
`CSc1sc(-c2cccnc2)c2c1-c1oncc1C(C)(C)C2` came in with a melting point of 123 to 125 °C.
With `N#Cc1cc(C2CCCCC2)c(C(=O)O)cn1` the figure was 225 to 230 °C; with `O=C(O)C(Cc1ccccc1)CS(=O)C1CCCCC1` (centres undefined), 153 to 154 °C; with `COCC1=NC(NC(=O)Nc2cccc(C)c2)C(=O)N(CC(=O)N2CC3CCC(CC3)C2)c2c(C)cccc21` (centres undefined), 178 to 182 °C.
Then `COC(=O)c1cccc(NC(=O)NS(=O)(=O)c2ccc(C)cc2)c1`, with 178 to 180 °C; and `O=C(O)c1cc(Cl)ccc1OCc1ccccc1`, with 113 to 115 °C; and `O=C(O)CCc1cccc(-c2nc(=O)c3ccccc3s2)n1`, with 243 to 244 °C.
With `O=C(O)c1c2n(c3cc(N4CCN(CCO)CC4)c(F)cc3c1=O)CCS2` the figure was 256 °C; with `Cc1ccc(S(=O)(=O)N(C)c2ccc(S(C)(=O)=O)cc2C#N)cc1`, 179 to 180 °C.
For `O=C1Nc2ccccc2C(c2ccccc2)N1C1CCN(CC2CC2)CC1` (centres undefined), the melting point was 276 to 281 °C.
For `Cc1ccc(C(=O)C2=C(O)C(=O)N(c3ccc(C(F)(F)F)cn3)C2c2ccc(C(C)C)cc2)cc1` (centres undefined), the melting point lay within 255 to 257 °C.
As to `O=C(NCCCc1ccncc1)N(CC=Cc1ccccc1)CCC12CC3CC(CC(C3)C1)C2`, the melting point fell in the range of 130 to 134 °C.
In turn, `CCn1c(=O)c2c(nc(/C=C/c3ccc(OCC(=O)c4ccccc4)c(OC)c3)n2C)n(CC)c1=O` had a melting point of 180 to 182 °C.
In turn, `COc1cc(C=CC(=O)CC(C)=O)ccc1O` displayed a melting point of 146 to 147 °C.
Consider `CCNC(=O)Nc1snc(C)c1C(=O)OCC`, for which the melting point was in the range of 150 to 151 °C.
Then `c1ccc(CC2=NOC3(CCNCC3)C2)cc1`, with 51 to 54 °C; and `COC(=O)C(C)Oc1ccc(COc2ccc(Cl)cc2Cl)cc1` (centres undefined), with 64 °C.
Turning to `COc1cccnc1C(c1cc(F)ccc1F)S(=O)(=O)c1ccc(Cl)cc1` (centres undefined), the melting point was in the range of 184 to 185 °C.
Take `COP(=S)(NNC(C)(C)C)OC`: the melting point was in the range of 51 to 54 °C.
With `COc1ccc(C2OC3(CCNCC3)N3CCCCC23)cc1` (centres undefined) the figure was 128 to 130 °C; with `CCCOc1ccc(S(=O)(=O)N2CCN(CC)CC2)cc1-c1nc2cc3ncn(Cc4cccc(F)c4)c3cc2c(=O)[nH]1`, 115 to 117 °C.
With `c1c2c(cc3c1CCC3)CCC2` the figure was 35 to 36.2 °C.
With `O=C(O)Cc1cc(Cl)c2c(c1)CCC(c1ccccc1)N2` (centres undefined), the melting point lay in the range of 126 to 127 °C.

Values taken from a melting point compilation (Tetko et al.; mined from patent text by program, amines drawn as free bases though some values may be those of a salt).
